In patent US20250170248A1, “SMARCA DEGRADERS AND USES THEREOF” (Kymera Therapeutics, Inc., priority 2021, published 2025):

Columns and labels:
Type in all cases: cell-based
[1] = target: T1, SMARCA2 (Homo sapiens, UniProt P51531); assay: SMARCA2 Western blot degradation in MV4-11 cells; set-up: SMARCA2/SMARCA4 protein degradation selectivity in MV4-11 cells; endogenous in cells; host or cells: MV4-11; details: for Dmax: MV4-11, MV4-11 cells, read-out: SMARCA2 MSD MV411 degradation 24 h: average Dmax %; for Dmax / DC50: 24 h; for DC50 / Selectivity in MV411: MV4-11 cells; for DC50: read-out: SMARCA2 MSD MV411 degradation 24 h: Mean external-Abs DC50; for Selectivity in MV411: SMARCA2/4 selectivity
[2] = target: T2, SMARCA4 (Homo sapiens, UniProt P51532); assay: SMARCA4 Western blot degradation in MV4-11 cells; details: 24 h; for Dmax: MV4-11, MV4-11 cells, read-out: SMARCA4 MSD MV411 degradation 24 h: average Dmax %; for DC50: MV4-11 cells, read-out: SMARCA4 MSD MV411 degradation 24 h: Mean external-Abs DC50
T2 construct: SMARCA2/SMARCA4 protein degradation selectivity in MV4-11 cells; endogenous in cells; host or cells: MV4-11
Procedure, shortened: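 Protein levels quantified by LI-COR Western blot (beta-actin loading control) in RIPA lysates of MV4-11 cells after 24 h compound exposure. Degradation reported as DC50, Dmax % at 24 h and SMARCA2 vs SMARCA4 selectivity, each binned into letter codes.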

[3] = target: T1, SMARCA2; assay: MSD SMARCA2 degradation in A549 cell line; details: 24 h; for Dmax: A549, A549 cells; for DC50: A549 cells, read-out: SMARCA2 MSD A549 degradation 24 h: Average external-Abs DC50
Procedure, shortened: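 SMARCA2 protein remaining after 24 h exposure of A549 cells (top concentration 1000 nM, 3-fold dilutions) was measured by MSD electrochemiluminescence immunoassay of cell lysates. Results are given as binned DC50 and maximal degradation (Dmax) codes.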

T2 sequence (P51532 whole entry): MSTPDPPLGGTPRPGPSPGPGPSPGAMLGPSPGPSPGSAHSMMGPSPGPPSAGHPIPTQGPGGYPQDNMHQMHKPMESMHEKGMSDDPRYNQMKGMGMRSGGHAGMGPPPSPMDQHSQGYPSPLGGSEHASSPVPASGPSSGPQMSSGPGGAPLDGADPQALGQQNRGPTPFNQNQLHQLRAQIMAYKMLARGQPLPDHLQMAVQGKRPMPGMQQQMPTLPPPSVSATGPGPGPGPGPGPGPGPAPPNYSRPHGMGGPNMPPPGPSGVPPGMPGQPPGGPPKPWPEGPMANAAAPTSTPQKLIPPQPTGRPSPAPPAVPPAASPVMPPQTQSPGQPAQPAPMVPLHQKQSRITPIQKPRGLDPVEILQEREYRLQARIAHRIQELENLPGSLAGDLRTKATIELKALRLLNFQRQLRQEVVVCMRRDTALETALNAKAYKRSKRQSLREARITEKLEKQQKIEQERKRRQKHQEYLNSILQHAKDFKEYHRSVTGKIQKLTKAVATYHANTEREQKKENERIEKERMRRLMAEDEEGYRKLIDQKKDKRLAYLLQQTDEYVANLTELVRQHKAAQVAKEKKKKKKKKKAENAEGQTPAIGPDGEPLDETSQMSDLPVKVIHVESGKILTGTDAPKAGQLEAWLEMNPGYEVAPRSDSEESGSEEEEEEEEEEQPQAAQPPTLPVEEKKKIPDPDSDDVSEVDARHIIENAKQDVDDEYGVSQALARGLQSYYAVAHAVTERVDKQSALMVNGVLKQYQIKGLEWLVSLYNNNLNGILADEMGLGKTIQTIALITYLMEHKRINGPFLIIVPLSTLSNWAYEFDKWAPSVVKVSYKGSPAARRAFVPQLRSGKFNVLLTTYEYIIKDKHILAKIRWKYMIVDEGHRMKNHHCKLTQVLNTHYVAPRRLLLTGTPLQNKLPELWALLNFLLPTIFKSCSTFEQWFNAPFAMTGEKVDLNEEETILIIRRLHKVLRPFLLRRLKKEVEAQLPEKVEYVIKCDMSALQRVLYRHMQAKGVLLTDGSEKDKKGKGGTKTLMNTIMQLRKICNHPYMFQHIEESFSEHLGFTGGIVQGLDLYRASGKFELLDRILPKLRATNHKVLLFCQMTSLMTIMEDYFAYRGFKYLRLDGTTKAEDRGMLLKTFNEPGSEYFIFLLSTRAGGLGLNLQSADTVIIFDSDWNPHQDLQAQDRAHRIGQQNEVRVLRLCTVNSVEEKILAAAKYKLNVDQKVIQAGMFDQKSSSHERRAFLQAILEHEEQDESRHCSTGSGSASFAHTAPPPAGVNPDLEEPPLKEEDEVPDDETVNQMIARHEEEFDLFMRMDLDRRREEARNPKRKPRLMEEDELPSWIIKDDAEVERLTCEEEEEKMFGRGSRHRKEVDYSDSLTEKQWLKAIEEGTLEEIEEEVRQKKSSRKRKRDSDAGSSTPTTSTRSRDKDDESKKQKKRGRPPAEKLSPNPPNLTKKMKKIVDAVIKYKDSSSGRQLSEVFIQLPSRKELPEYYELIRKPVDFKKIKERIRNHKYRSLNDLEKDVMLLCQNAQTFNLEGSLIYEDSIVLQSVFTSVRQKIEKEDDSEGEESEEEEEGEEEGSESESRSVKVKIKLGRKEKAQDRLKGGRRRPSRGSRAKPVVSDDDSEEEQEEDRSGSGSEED
T1 sequence (P51531 whole entry): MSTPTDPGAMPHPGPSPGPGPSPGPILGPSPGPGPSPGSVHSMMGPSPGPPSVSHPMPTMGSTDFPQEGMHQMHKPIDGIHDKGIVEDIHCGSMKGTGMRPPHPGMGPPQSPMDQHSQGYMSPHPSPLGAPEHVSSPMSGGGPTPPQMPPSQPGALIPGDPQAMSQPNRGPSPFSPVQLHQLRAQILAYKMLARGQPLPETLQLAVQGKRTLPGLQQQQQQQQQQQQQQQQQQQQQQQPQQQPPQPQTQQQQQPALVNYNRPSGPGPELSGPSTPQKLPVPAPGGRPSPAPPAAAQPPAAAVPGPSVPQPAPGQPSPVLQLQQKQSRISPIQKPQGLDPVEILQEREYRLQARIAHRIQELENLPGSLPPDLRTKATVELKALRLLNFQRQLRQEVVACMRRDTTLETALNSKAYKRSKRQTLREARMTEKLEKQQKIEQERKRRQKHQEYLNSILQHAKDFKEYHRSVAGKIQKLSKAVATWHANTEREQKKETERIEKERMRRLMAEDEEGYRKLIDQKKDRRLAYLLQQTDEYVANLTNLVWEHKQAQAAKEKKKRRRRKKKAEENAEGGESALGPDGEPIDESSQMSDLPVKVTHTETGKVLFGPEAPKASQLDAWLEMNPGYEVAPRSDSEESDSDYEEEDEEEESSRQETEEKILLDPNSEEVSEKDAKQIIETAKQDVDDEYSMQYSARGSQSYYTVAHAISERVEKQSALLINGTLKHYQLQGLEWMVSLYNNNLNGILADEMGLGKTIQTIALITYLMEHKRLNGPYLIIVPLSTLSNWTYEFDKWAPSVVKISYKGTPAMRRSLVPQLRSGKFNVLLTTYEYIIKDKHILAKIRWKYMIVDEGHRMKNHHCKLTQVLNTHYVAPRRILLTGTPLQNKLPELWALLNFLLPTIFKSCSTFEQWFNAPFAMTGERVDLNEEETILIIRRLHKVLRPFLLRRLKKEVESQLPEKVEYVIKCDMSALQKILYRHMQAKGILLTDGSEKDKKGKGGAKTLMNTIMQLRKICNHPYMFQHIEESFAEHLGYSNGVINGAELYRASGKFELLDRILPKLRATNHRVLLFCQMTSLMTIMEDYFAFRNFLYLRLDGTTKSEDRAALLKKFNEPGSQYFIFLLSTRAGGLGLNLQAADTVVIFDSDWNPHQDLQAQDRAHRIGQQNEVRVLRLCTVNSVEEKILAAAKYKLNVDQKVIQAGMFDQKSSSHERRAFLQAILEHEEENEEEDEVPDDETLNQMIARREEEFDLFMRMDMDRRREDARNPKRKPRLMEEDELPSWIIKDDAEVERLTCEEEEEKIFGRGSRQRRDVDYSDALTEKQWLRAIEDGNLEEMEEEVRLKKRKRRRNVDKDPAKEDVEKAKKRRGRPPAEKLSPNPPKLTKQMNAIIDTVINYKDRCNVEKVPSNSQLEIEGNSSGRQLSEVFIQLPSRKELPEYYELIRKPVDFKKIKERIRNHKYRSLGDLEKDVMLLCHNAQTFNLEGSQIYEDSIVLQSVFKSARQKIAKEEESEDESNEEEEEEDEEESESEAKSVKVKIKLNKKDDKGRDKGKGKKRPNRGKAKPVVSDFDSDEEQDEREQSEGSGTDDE

SMILES	Dmax [1] [%]	DC50 [1] [nM]	Selectivity in MV411 [1]	Dmax [2] [%]	DC50 [2] [nM]	Dmax [3] [%]	DC50 [3] [nM]
C#Cc1ccc(CNC(=O)[C@@H]2C[C@@H](O)CN2C(=O)[C@@H](NC(=O)N2CC3(CC(N4CCC(N5CC6(CC(N7CCN8c9cc(-c%10ccccc%10O)nnc9NC[C@H]8C7)C6)C5)CC4)C3)C2)C(C)(C)C)cc1 [I-224]	70 to 90	1 to 10	C (C (10-100 fold))	70 to 90	10 to 100	> 90	50 to 100
C#Cc1ccc(CNC(=O)[C@@H]2C[C@@H](O)CN2C(=O)[C@@H](NC(=O)N2CC3(CC(N4CCC(c5cnc(N6CCc7[nH]c8nnc(-c9ccccc9O)cc8c7[C@@H]6C)nc5)CC4)C3)C2)C(C)(C)C)c(OCCCOC)c1 [I-227]	70 to 90	10 to 100	D (D (<10 fold))	> 90	> 100	> 90	50 to 100
C#Cc1ccc(CNC(=O)[C@@H]2C[C@@H](O)CN2C(=O)[C@@H](NC(=O)N2CC3(CC(N4CCC(c5cnc(N6CCc7[nH]c8nnc(-c9ccccc9O)cc8c7[C@@H]6C)nc5)CC4)C3)C2)C(C)(C)C)cc1 [I-228]	70 to 90	10 to 100	D (D (<10 fold))	> 90	> 100	> 90	> 100
C#Cc1ccc(CNC(=O)[C@@H]2C[C@@H](O)CN2C(=O)[C@@H](NC(=O)[C@H]2CC3(C2)C[C@H](N2CCN(C(=O)CN4CCN5c6cc(-c7ccccc7O)nnc6NC[C@H]5C4)CC2)C3)C(C)(C)C)cc1 (stereo partly shown) [I-240]	–	1 to 10	D (D (<10 fold))	–	10 to 100	–	> 100
C#Cc1ccc(CNC(=O)[C@@H]2C[C@@H](O)CN2C(=O)[C@@H](NC(=O)[C@H]2CC3(C2)C[C@H](N2CCC(N4CCC(N5CCN6c7cc(-c8ccccc8O)nnc7NC[C@H]6C5)CC4)CC2)C3)C(C)(C)C)c(O)c1 (stereo partly shown) [I-242]	–	1 to 10	C (C (10-100 fold))	–	10 to 100	–	50 to 100
C#Cc1ccc(CNC(=O)[C@@H]2C[C@@H](O)CN2C(=O)[C@@H](NC(=O)CCCCCCCN2CCC(N3CC4(CC(N5CCN6c7cc(-c8ccccc8O)nnc7NC[C@H]6C5)C4)C3)CC2)C(C)(C)C)cc1 [I-243]	70 to 90	1 to 10	B (B (>100-500 fold))	< 50	> 100	> 90	50 to 100
C#Cc1ccc([C@H](C)NC(=O)[C@@H]2C[C@@H](O)CN2C(=O)[C@@H](NC(=O)N2CC3(C2)CN(C2CCN(c4cnc(N5CCc6[nH]c7nnc(-c8ccccc8O)cc7c6[C@H]5C)nc4)CC2)C3)C(C)(C)C)cc1 [I-249]	> 90	10 to 100	C (C (10-100 fold))	70 to 90	> 100	> 90	10 to 50
C#Cc1ccc([C@H](C)NC(=O)[C@@H]2C[C@@H](O)CN2C(=O)[C@@H](NC(=O)N2CC3(CC(N4CCC(c5cnc(N6CCc7[nH]c8nnc(-c9ccccc9O)cc8c7[C@H]6C)cn5)CC4)C3)C2)C(C)(C)C)cc1 [I-250]	> 90	10 to 100	C (C (10-100 fold))	70 to 90	> 100	> 90	10 to 50
C#Cc1ccc(CNC(=O)[C@@H]2C[C@@H](O)CN2C(=O)[C@@H](NC(=O)CCCCCN2CCC(N3CC4(CC(N5CCN6c7cc(-c8ccccc8O)nnc7NC[C@H]6C5)C4)C3)CC2)C(C)(C)C)cc1 [I-251]	70 to 90	10 to 100	B (B (>100-500 fold))	< 50	> 100	> 90	> 100
C#Cc1ccc(CNC(=O)[C@@H]2C[C@@H](O)CN2C(=O)[C@@H](NC(=O)CN2CCC(N3CC4(CC(N5CCN6c7cc(-c8ccccc8O)nnc7NC[C@H]6C5)C4)C3)CC2)C(C)(C)C)cc1 [I-252, (2S,4R)—N-(4-ethynylbenzyl)-4-hydroxy-1-((S)-2-(2-(4-(6-((S)-2-(2-hydroxyphenyl)-6a,7,9,10-tetrahydro-5H-pyrazino[1′,2′:4,5]pyrazino[2,3-c]pyridazin-8(6H)-yl)-2-azaspiro[3.3]heptan-2-yl)piperidin-1-yl)acetamido)-3,3-dimethylbutanoyl)pyrrolidine-2-carboxamide]	> 90	< 1	D (D (<10 fold))	> 90	1 to 10	> 90	50 to 100
